Patent US6589916B1, “Method and composition for treating and promoting the growth of plants” (Amvac Chemical Corporation, priority 1999, dated 2003)

How the values were obtained:
[1] = system: live grass (Bermudagrass (Common, Midiron, and Ormond), Tifway II, Tifway 419, Tifdwarf, and Tifgreen 328 grasses); experiment: Methyldithiocarbamate trials: spray treatment of live golf course grass plots, leaf appearance scored; assay type: in vivo; parameters: key to score for appearance of the grass leaves: 0: burning of leaf tissue; 1: bronzing of leaf tissue; 2: burning of the tip of the leaf tissue; 3: No burning or change in color of the leaf tissue; 4: good greening of the leaf tissue; 5: excellent greening of the leaf tissue
Method: The effect of the application of methylammonium methyldithiocarbamate to live grass was determined in the following manner. Dilute aqueous solutions of three salts of the same dithiocarbamic acid derivative were prepared: methylammonium methyldithiocarbamate, sodium methyldithiocarbamate, and potassium methyldithiocarbamate. The solutions were prepared by mixing the dithiocarbamic acid derivative with water to achieve a concentration of between about 1.2 and 3.5% by weight.
Three plots of grass of substantially equal type, quality, color, and size were selected at each of several golf courses throughout the state of Florida. The grass at these courses consisted of one or a combination of Bermudagrass (Common, Midiron, and Ormond), Tifway II, Tifway 419, Tifdwarf, and Tifgreen 328 grasses. To each of these plots one of the methyldithiocarbamate salts were applied via an ordinary above-ground spraying system in an amount equivalent to between about 0.5 to 40 lbs of methyldithiocarbamate salt per acre of soil. All applications were watered in with 1/2 inch of water within 20 minutes of treatment, which moved the dithiocarbamic acid derivative into and slightly below the root zone of the grass.
The results of treating each plot with the methyldithiocarbamate salts were evaluated from 1 to 2 weeks after treatment by examining the appearance of the grass leaves. A score was assigned to each plot according to the following scale: 0=burning of leaf tissue; 1=bronzing of leaf tissue; 2=burning of the tip of the leaf tissue; 3=No burning or change in color of the leaf tissue; 4=good greening of the leaf tissue; 5=excellent greening of the leaf tissue. Where two values were assigned, the plot contained a substantial number of grass leaves of one score and a substantial number of the other score.

Morning Glory = conditions: stated in U.S. Pat. No. 2,766,554; cited from earlier work
[2] = four hours ultraviolet light from an arc; U.S. Pat. No. 2,835,625; cited from earlier work
[3] = 1. Grenelefe Resort, treated February 1998, evaluation 2 weeks after treatment
[4] = 1. Grenelefe Resort, treated January 1998, evaluation 2 weeks after treatment
[5] = 1. Grenelefe Resort, treated March 1998, evaluation 2 weeks after treatment
[6] = 2. Long Boat Key, treated April 1998, evaluation 1 week after treatment
[7] = 2. Long Boat Key, treated February 1998, evaluation 2 weeks after treatment
[8] = 2. Long Boat Key, treated March 1998, evaluation 2 weeks after treatment
[9] = 3. Indian River Club, treated April 1998, evaluation 1 week after treatment
[10] = 3. Indian River Club, treated March 1998, evaluation 2 weeks after treatment
[11] = 3. Indian River Club, treated May 1998, evaluation 1 week after treatment
[12] = 4. La Cita C.C., treated June 1998, evaluation 1 week after treatment
[13] = 4. La Cita C.C., treated March 1998, evaluation 1 week after treatment
[14] = 4. La Cita C.C., treated September 1998, evaluation 1 week after treatment
[15] = 5. Wellington C.C., treated April 1998, evaluation 2 weeks after treatment
[16] = 6. Dodgertown C.C., treated April 1998, evaluation 1 week after treatment
[17] = 6. Dodgertown C.C., treated May 1998, evaluation 1 week after treatment
[18] = 7. Westchester C.C., treated April 1998, evaluation 1 week after treatment
[19] = 8. President Club, treated July 1998, evaluation 1 week after treatment
[20] = 8. President Club, treated May 1998, evaluation 1 week after treatment
[21] = 9. Vero Beach C.C., treated June 1998, evaluation 1 week after treatment
[22] = 10. Admirals Cove, treated July 1998, evaluation 1 week after treatment
[23] = 11. Moorings C.C., treated August 1998, evaluation 1 week after treatment
[24] = 12. Hawks Nest C.C., treated August 1998, evaluation 1 week after treatment
[25] = 13. Woodmont C.C., treated June 1998, evaluation 1 week after treatment
[26] = 13. Woodmont C.C., treated September 1998, evaluation 1 week after treatment

| SMILES | score for appearance of the grass leaves [1, 3] | score for appearance of the grass leaves [1, 4] | score for appearance of the grass leaves [1, 5] | score for appearance of the grass leaves [1, 6] | score for appearance of the grass leaves [1, 7] | score for appearance of the grass leaves [1, 8] | score for appearance of the grass leaves [1, 9] | score for appearance of the grass leaves [1, 10] | score for appearance of the grass leaves [1, 11] | score for appearance of the grass leaves [1, 12] | score for appearance of the grass leaves [1, 13] | score for appearance of the grass leaves [1, 14] | score for appearance of the grass leaves [1, 15] | score for appearance of the grass leaves [1, 16] | score for appearance of the grass leaves [1, 17] | score for appearance of the grass leaves [1, 18] | score for appearance of the grass leaves [1, 19] | score for appearance of the grass leaves [1, 20] | score for appearance of the grass leaves [1, 21] | score for appearance of the grass leaves [1, 22] | also measured |
| --- | --- | --- | --- | --- | --- | --- | --- | --- | --- | --- | --- | --- | --- | --- | --- | --- | --- | --- | --- | --- | --- |
| CN.CNC(=S)S [METHYL AMMONIUM, methylammonium methyldithiocarbamate] | 3-4 | 4 | 4 | 4 | 4 | 4 | 4 | 4 | 4 | 5 | 5 | 5 | 5 | 4 | 4 | 4 | 5 | 5 | 4-5 | 4 | score for appearance of the grass leaves [1, 23]: 5; score for appearance of the grass leaves [1, 24]: 5; score for appearance of the grass leaves [1, 25]: 5; score for appearance of the grass leaves [1, 26]: 5; appearance of the grass leaf tissue, in words ([1]; Grenelefe Resort, February): improved only marginally in color; appearance of the grass leaf tissue, summary in words ([1]; all treated areas of Table 2): either good or excellent greening of the leaf tissue; results compared with potassium methyldithiocarbamate ([1]; all trials of Table 2): far better results than the potassium methyldithiocarbamate; results compared with sodium methyldithiocarbamate ([1]; all trials of Table 2): better results than the sodium methyldithiocarbamate; eradication of Morning Glory (Morning Glory): excellent eradicator of Morning Glory |
| CNC(=S)[S-].[K+] [POTASSIUM, potassium methyldithiocarbamate] | 1 | 0 | 0-1 | 1-2 | 1 | 1-2 | 0-1 | 1 | 1-2 | 1 | 2 | 2 | 1 | 0 | 1-2 | 1 | 2-3 | 0 | 1 | 1-2 | score for appearance of the grass leaves [1, 23]: 1; score for appearance of the grass leaves [1, 24]: 0; score for appearance of the grass leaves [1, 25]: 1-2; score for appearance of the grass leaves [1, 26]: 2-3 |
| CC(C)OC(=O)SC(=S)N(C)C [isopropoxycarbonyl dimethyldithiocarbamate] |  |  |  |  |  |  |  |  |  |  |  |  |  |  |  |  |  |  |  |  | biological activity after ultraviolet light treatment [2]: without losing any biological activity |
| CNC(=S)[S-].[Na+] [SODIUM, sodium methyldithiocarbamate] | 3 | 3 | 3-4 | 3 | 2 | 3 | 3 | 3 | 3-4 | 3-4 | 4 | 4 | 3 | 3 | 3-4 | 3 | 4 | 4 | 3-4 | 3-4 | score for appearance of the grass leaves [1, 23]: 4; score for appearance of the grass leaves [1, 24]: 4; score for appearance of the grass leaves [1, 25]: 4; score for appearance of the grass leaves [1, 26]: 4 |
